We go through two compounds from ChEMBL document CHEMBL4507276 (2021).

SMILES strings stand for the structures.

Assay [1] addresses Phosphatidylinositol 4-kinase beta (Homo sapiens) (UniProt Q9UBF8). The note with it: Compound concentration 1000.0 nM.
Assay [2] deals with Tyrosine-protein kinase ABL1 (Homo sapiens) (UniProt P00519). Nature of the assay: ABL_CE Cerep selectivity data (BI). The note with it: Compound concentration 20.0 uM.
The target of assay [3] is Chloride channel protein 1 (Rattus norvegicus) (UniProt P35524). In words: CL-CHANNEL/R Cerep selectivity data (BI). The note with it: Compound concentration 20.0 uM.
The target of assay [4] is Estrogen receptor (Homo sapiens) (UniProt P03372). Nature of the assay: ER_ALPHA_AGON Cerep selectivity data (BI). Conditions: filed as agonist, Compound concentration 20.0 uM.
Assay [5] deals with Gamma-aminobutyric acid receptor subunit alpha-1 (Homo sapiens) (UniProt P14867). In words: GABAA1(H) Cerep selectivity data (BI). Conditions: filed as agonist, Compound concentration 20.0 uM.
The target of assay [6] is Glutamate receptor ionotropic, kainate 1 (Rattus norvegicus) (UniProt P22756). Nature of the assay: KAINATE/RA Cerep selectivity data (BI). Conditions: Compound concentration 20.0 uM.
Assay [7] deals with T1, Muscarinic acetylcholine receptor M1 (Homo sapiens) (UniProt P11229).
T1 sequence (whole entry): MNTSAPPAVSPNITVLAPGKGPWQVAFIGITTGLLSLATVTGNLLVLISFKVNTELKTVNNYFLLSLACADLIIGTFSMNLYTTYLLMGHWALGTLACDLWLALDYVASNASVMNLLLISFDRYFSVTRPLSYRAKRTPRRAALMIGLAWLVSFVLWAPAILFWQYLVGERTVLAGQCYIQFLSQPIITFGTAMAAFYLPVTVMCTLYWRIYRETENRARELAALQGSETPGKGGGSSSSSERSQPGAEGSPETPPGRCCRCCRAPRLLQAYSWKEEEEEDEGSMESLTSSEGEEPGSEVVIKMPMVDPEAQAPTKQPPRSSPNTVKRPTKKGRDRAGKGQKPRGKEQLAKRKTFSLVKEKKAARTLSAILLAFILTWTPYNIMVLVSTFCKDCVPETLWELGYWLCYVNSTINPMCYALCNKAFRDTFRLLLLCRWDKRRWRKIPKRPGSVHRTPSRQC
Nature of the assay: M1/H Cerep selectivity data (BI). Conditions: Compound concentration 20.0 uM.

Assay [8] deals with cGMP-dependent 3',5'-cyclic phosphodiesterase (Homo sapiens) (UniProt O00408). Nature of the assay: PDE2A1 Cerep selectivity data (BI). The note with it: Compound concentration 20.0 uM.
The target of assay [9] is Estrogen receptor (Homo sapiens) (UniProt P03372). Nature of the assay: ERALPHA/H Eurofins-Panlabs selectivity data (BI). The note with it: Compound concentration 10.0 uM.
Assay [10] deals with Nicotinic acetylcholine receptor alpha-1/beta-1 (Homo sapiens) (UniProt P02708+P11230). Nature of the assay: NACH_BS_N/H Eurofins-Panlabs selectivity data (BI). Type of assay: protein-complex assay. The note with it: Compound concentration 10.0 uM.
For assay [11], the target named is P2Y purinoceptor 1 (Rattus norvegicus) (UniProt P49651). Nature of the assay: P2Y/RAT Eurofins-Panlabs selectivity data (BI). Conditions: Compound concentration 10.0 uM.
The target of assay [12] is Androgen receptor (Rattus norvegicus) (UniProt P15207). In words: TESTOST/RA Eurofins-Panlabs selectivity data (BI). The note with it: Compound concentration 10.0 uM.
The target of assay [13] is T2, Activin receptor type-1 (Homo sapiens) (UniProt Q04771).
T2 sequence (whole entry): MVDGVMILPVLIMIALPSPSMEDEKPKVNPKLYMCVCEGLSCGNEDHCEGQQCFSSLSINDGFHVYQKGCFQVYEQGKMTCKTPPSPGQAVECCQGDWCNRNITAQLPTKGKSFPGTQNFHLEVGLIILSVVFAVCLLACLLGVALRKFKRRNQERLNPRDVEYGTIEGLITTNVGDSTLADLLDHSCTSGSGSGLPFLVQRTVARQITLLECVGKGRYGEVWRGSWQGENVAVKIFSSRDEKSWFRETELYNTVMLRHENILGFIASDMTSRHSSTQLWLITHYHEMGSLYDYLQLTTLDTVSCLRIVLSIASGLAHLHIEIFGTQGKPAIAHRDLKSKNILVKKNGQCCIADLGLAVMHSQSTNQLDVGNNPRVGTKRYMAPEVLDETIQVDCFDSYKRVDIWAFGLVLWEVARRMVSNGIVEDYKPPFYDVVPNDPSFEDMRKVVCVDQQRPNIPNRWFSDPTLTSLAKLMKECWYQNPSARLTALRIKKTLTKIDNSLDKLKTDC
In words: ACVR1 Invitrogen selectivity data (BI). Conditions: Compound concentration 3.0 uM.

For assay [14], the target named is AMPK alpha2/beta1/gamma1 (Homo sapiens) (UniProt P54646+P54619+Q9Y478). In words: AMPK A2B1G1 Invitrogen selectivity data (BI). Type of assay: protein-complex assay. The note with it: Compound concentration 3.0 uM.
In assay [15] the target is Serine/threonine-protein kinase B-raf (Homo sapiens) (UniProt P15056). Nature of the assay: BRAF Invitrogen selectivity data (BI). The note with it: Compound concentration 3.0 uM.
The subject of assay [16] is Fibroblast growth factor receptor 3 (Homo sapiens), P22607 [K650E]. Nature of the assay: FGFR3 K650E Invitrogen selectivity data (BI). The note with it: Compound concentration 3.0 uM.
Assay [17] concerns the target Tyrosine-protein kinase HCK (Homo sapiens) (UniProt P08631). Nature of the assay: HCK Invitrogen selectivity data (BI). The note with it: Compound concentration 3.0 uM.
Assay [18] deals with Mitogen-activated protein kinase kinase kinase kinase 5 (Homo sapiens) (UniProt Q9Y4K4). Nature of the assay: MAP4K5 Invitrogen selectivity data (BI). Conditions: Compound concentration 3.0 uM.
The target in assay [19] is Mitogen-activated protein kinase 3 (Homo sapiens) (UniProt P27361). In words: MAPK3 Invitrogen selectivity data (BI). Conditions: Compound concentration 3.0 uM.
Assay [20] concerns Platelet-derived growth factor receptor alpha (Homo sapiens), P16234 [T674I]. Nature of the assay: PDGFRA T674I Invitrogen selectivity data (BI). Conditions: Compound concentration 3.0 uM.
Assay [21] has as its target T3, Tyrosine-protein kinase Tec (Homo sapiens) (UniProt P42680).
T3 sequence (whole entry): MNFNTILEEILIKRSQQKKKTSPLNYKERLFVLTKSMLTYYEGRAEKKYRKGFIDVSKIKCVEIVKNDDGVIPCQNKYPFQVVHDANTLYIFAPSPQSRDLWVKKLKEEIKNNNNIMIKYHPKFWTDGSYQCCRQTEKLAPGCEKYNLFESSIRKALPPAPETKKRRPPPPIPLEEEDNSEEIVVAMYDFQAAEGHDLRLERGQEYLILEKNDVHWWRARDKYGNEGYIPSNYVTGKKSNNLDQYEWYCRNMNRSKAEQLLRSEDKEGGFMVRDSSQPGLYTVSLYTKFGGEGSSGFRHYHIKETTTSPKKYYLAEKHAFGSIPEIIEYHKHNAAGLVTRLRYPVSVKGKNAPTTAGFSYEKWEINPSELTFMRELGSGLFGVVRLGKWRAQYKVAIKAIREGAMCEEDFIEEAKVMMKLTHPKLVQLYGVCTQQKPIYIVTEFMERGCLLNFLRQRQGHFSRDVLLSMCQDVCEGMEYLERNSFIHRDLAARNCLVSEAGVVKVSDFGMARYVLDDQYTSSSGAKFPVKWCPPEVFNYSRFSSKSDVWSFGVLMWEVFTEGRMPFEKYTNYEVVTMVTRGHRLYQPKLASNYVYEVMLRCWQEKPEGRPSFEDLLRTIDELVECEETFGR
In words: TEC Invitrogen selectivity data (BI). Conditions: Compound concentration 3.0 uM.

The target of assay [22] is Tyrosine-protein kinase Yes (Homo sapiens) (UniProt P07947). In words: YES1 Invitrogen selectivity data (BI). Conditions: Compound concentration 3.0 uM.
Assay [23] has as its target Phosphorylase b kinase gamma catalytic chain, liver/testis isoform (Homo sapiens) (UniProt P15735). Nature of the assay: PHKG2 Invitrogen selectivity data (BI). The note with it: Compound concentration 3.0 uM.

Chain of Estrogen receptor (Homo sapiens) (P03372 whole entry): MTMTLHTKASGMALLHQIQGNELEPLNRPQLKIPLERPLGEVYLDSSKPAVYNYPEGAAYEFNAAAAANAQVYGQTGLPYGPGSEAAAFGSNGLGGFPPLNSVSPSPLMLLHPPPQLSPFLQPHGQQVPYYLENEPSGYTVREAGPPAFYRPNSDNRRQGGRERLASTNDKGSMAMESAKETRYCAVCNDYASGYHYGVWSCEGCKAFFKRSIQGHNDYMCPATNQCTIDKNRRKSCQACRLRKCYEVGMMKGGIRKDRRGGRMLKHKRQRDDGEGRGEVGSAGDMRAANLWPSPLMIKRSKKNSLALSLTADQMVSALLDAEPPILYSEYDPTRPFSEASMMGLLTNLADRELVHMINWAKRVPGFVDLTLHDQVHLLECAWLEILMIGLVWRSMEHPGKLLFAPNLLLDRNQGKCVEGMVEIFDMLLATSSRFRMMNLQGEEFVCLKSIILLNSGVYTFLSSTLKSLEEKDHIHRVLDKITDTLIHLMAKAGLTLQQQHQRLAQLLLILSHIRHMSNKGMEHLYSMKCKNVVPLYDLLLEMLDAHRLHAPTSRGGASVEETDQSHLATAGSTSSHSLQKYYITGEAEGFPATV
Chain of Serine/threonine-protein kinase B-raf (Homo sapiens) (P15056 whole entry): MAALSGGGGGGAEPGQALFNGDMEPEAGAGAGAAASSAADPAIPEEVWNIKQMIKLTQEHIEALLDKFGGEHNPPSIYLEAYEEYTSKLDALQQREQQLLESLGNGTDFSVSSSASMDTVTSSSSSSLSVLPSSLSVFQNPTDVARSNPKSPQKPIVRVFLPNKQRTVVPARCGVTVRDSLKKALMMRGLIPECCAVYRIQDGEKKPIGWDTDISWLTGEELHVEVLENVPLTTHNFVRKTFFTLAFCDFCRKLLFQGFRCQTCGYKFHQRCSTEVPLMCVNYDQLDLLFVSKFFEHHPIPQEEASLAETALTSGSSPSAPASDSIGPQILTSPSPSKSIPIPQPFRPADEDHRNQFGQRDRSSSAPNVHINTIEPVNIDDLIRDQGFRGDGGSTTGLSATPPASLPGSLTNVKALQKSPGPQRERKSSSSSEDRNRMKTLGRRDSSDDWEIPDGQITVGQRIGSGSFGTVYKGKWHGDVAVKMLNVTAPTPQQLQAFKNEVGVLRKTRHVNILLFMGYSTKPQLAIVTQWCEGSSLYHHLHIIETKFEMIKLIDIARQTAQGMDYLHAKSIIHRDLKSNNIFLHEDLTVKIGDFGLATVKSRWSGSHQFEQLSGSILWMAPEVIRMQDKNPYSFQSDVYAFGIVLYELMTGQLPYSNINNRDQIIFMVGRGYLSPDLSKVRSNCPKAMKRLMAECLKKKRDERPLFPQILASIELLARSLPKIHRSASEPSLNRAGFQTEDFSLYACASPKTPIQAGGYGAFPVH
Chain of cGMP-dependent 3',5'-cyclic phosphodiesterase (Homo sapiens) (O00408 whole entry): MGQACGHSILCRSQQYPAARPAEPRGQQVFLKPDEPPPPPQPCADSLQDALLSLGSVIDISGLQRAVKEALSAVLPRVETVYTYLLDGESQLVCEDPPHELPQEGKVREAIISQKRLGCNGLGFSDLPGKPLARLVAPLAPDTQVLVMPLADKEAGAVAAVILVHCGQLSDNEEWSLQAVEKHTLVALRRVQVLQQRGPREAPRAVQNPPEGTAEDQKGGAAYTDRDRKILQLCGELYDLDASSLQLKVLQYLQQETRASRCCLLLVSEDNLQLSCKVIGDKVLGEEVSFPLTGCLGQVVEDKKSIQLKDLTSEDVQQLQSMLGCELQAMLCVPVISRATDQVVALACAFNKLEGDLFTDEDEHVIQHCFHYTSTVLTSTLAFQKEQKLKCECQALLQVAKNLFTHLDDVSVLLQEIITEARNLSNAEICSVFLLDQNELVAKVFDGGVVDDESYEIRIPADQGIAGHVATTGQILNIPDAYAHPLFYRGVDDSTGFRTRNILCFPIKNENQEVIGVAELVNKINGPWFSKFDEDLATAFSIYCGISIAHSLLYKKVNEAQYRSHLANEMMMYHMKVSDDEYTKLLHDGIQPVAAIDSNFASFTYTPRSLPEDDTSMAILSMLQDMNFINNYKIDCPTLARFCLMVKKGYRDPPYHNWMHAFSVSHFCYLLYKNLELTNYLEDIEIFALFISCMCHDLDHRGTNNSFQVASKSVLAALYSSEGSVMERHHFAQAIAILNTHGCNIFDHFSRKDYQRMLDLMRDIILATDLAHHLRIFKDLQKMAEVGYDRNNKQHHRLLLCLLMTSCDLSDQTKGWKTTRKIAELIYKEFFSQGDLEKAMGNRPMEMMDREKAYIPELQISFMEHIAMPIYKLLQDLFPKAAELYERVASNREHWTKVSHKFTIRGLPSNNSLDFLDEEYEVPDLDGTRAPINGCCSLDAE
Chain of Platelet-derived growth factor receptor alpha (Homo sapiens), P16234 [T674I] (P16234 whole entry T674I): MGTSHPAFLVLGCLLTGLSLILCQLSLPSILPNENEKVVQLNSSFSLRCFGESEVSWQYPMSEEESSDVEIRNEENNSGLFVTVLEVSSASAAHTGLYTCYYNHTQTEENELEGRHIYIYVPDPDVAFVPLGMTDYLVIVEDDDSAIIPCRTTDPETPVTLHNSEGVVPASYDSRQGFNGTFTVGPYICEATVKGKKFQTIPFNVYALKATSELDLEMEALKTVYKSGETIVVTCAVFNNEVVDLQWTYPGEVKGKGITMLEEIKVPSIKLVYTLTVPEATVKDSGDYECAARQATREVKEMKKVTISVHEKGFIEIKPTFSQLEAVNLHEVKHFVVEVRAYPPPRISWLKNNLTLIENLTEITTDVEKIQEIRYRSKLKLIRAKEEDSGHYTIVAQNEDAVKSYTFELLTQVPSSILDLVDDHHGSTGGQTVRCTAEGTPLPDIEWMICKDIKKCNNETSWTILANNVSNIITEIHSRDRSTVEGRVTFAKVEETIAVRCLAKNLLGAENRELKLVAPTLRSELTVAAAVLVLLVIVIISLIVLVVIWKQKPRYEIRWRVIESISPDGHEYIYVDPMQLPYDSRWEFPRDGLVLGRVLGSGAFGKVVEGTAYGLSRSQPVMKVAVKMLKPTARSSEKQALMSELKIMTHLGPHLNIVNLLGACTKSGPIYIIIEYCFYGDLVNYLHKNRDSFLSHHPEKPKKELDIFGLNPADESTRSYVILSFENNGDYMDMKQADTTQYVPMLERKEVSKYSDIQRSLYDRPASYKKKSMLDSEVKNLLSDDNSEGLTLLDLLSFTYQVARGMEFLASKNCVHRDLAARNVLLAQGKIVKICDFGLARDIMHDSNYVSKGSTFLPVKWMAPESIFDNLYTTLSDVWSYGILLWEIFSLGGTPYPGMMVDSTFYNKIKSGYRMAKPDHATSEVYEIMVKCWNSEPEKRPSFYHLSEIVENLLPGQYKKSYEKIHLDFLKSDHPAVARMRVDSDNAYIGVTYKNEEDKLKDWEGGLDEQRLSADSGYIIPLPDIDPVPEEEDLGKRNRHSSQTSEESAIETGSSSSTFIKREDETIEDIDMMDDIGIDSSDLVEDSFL
Chain of Glutamate receptor ionotropic, kainate 1 (Rattus norvegicus) (P22756 whole entry): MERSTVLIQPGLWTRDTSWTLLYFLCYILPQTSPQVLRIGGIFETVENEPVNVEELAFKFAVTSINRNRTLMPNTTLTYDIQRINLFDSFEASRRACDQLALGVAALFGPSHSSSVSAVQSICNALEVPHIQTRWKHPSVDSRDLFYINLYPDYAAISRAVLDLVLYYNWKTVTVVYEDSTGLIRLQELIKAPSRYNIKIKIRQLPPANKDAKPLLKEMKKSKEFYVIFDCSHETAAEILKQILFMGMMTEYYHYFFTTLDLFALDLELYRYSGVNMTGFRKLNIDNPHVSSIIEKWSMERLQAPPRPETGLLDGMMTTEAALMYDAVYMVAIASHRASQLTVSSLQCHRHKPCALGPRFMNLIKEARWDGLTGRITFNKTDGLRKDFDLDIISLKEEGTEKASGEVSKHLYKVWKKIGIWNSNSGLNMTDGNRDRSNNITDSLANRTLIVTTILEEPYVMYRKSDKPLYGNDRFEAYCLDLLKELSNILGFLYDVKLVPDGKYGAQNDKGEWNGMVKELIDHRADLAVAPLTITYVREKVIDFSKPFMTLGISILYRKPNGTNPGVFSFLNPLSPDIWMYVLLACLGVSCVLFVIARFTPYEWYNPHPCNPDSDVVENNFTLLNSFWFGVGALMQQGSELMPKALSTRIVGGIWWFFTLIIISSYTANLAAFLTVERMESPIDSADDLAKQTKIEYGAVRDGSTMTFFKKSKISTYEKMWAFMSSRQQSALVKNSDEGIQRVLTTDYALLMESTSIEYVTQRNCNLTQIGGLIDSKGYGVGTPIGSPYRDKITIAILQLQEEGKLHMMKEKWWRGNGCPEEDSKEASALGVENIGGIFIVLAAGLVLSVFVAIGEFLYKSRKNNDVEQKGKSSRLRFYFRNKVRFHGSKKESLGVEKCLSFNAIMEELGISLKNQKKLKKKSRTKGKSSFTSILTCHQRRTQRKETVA
Chain of P2Y purinoceptor 1 (Rattus norvegicus) (P49651 whole entry): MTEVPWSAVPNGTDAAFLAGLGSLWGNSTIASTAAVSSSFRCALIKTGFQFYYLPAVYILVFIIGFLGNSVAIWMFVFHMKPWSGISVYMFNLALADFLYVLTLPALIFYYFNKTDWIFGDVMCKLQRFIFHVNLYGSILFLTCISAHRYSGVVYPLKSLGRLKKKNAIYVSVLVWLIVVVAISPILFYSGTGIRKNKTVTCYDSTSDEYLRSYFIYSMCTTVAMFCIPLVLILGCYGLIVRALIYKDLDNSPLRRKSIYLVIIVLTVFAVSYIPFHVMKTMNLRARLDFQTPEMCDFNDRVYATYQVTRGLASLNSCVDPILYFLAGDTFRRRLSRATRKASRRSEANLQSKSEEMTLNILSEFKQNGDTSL

For the compound `CN(C)C(=O)Cn1cc(-c2nc(C3(c4ccc(-c5cnc(N)nc5)cc4)CC3)no2)cn1` [BI 0153], the residual activity in assay [1] is 70%.

In the case of `CN(C)C(=O)Cn1cc(-c2nc([C@@](C)(c3ccc(-c4cnc(N)nc4)cc3)C3CC3)no2)cn1` [BI 665915], the residual activity in assay [2] is 33%; in assay [3], 88%; in assay [4] it was 96%; in [5] it was 105%; in [6] it was 82%; in [7] it was 99%. The residual activity in assay [8] is 97%; in assay [9], 85%; in assay [10] it was 99%; in [11], 95%; in [12], 99%; in [13], 79%. The residual activity in [14] is 100%; in [15], 95%; in assay [16], 91%; in assay [17] it was 85%; in assay [18], 93%; in [19], 97%. For the same compound, the residual activity in [20] was 87%; in assay [21] it was 103%; in [22] it was 88.5%; in [23], 97.5%.
